Source: patent US11179471B2, “Peptide for cytosolic delivery” (priority 2017, dated 2021)
Residues, ends and D or L forms follow the SMILES beside them.

Experiments:
[1] = Helix content from CD spectra in the presence of POPC/POPG (3:1) liposomes; format: physicochemical; conditions: result in words (FIG. 1)
Method: The helix content was calculated by the method of Y. H. Chen et al., 1972, based on 222-nm molar ellipticity ([…]) using the following formula: Helicity (%)=−([θ]222+2340)/30300*100.
The helix content of the peptides obtained in Example 1 (L17E, L17E/Q21E, L17Aad, HA/E1, HA/E2, and HAad) was calculated in the presence of POPC/POPG (3:1) liposomes by the method of Y. H. Chen et al., 1972, based on 222-nm molar ellipticity ([θ]222) using the following formula: Helix content (%)=−([θ]222+2340)/30300*100. Further, the CD spectra of the peptides were measured.

HeLa cells = test: Intracellular release of Alexa 488-labeled human immunoglobulin (IgG, circa 160 kDa); format: cell-based; conditions: for cells in which intracellular release of human immunoglobulin was observed: α-MEM(−) 1 hour
Method: The cells and human immunoglobulin fluorescently labeled with Alexa 488 (IgG, circa 160 kDa) (500 μg/mL) were incubated in the presence of HAad, HA/E2, or L17E (40 μM each) in α-MEM(−) medium for 1 hour in the same manner as in Example 6.
The cells and human immunoglobulin fluorescently labeled with Alexa 488 (IgG, circa 160 kDa) (50 μg/mL: 1/10 the volume of Example 8) were incubated in the presence of HAad or L17E (40 μM each) in α-MEM(−) medium for 1 hour.
In the presence of HAad or L17E (20 μM each: ½ the amount used in Examples 8 and 9), the cells and human immunoglobulin fluorescently labeled with Alexa 488 (IgG, circa 160 kDa) (500 μg/mL: the same amount as in Example 8) were incubated in α-MEM(−) medium for 1 hour. […] (In FIG. 9, the intracellular release achieved by treatment with a low concentration of HAad was 2.5 times the release achieved by L17E. With respect to the peptide concentration required to detect the signal of intracellularly released human immunoglobulin in 35% of the cells, the concentration of L17E is 40 μM, and the concentration of HAad is 20 μM, which is half the concentration of L17E.)

[2] = system: HeLa cells transfected with a plasmid encoding loxP-DsRed-loxP-EGFP; test: Genetic recombination assay by intracellular delivery of Cre protein (EGFP expression); format: cell-based
Method: HeLa cells transfected with a plasmid encoding loxP-DsRed-loxP-EGFP, which were prepared in the same manner as in the Examples of PTL 2, were incubated with His-tag fusion Cre (Cre-Hiss) (10 μM) in the presence of HAad, HA/E2, or L17E (40 μM each) for 1 hour. This system was designed to express EGFP when intracellular release of Cre protein induces genetic recombination. […] The proportions of GFP-expressing cells in the cells treated with HAad, HA/E2, and L17E were 41%, 36%, and 30%, respectively. Considering the fact that the EGFP expression efficiency achieved with no administration of a release peptide was 9%, peptide administration of HAad, HA/E2, and L17E can be considered to increase genetic recombination by 32%, 27%, and […], respectively, as compared with no peptide administration.

[3] = system: mitochondrial membrane of HeLa cells; conditions: HeLa; 40 μM, 1 hour in α-MEM(−); Lipofectamine LTX/pCI complex overnight in α-MEM(+)
Description: Mitochondrial membranes are considered to be rich in acidic lipid, as compared with cell membranes. Accordingly, the effects of the above peptides on a mitochondrial membrane were examined by JC-1 assay. A JC-1 reagent emits red (J-aggregate) fluorescence when the mitochondrial membrane is kept normal and the membrane potential is maintained; and the JC-1 reagent emits green (J-monomer) fluorescence when the mitochondrial membrane is damaged and the membrane potential is not kept normal. After HeLa cells were incubated with HAad, HA/E2, or L17E (40 μM) in α-MEM(−) for 1 hour, JC-1 assay was performed. The percentage of cells that emitted red fluorescence was assayed by flow cytometry.

[4] = Cell viability 24 hours after peptide treatment in the presence of serum (WST-8); format: cell-based; conditions: cells (cell line not given); peptide 10 μM, 20 μM and 40 μM; α-MEM(+) 24 hours; WST-8
Method: (§1) After the cells were incubated in the presence of HAad, HA/E2, or L17E (each 10 μM, 20 μM, and 40 μM) in α-MEM(+) medium for 24 hours, the cell viability (%) was evaluated by WST-8 assay (FIG. 14). The cell viability (%) after 24 hours with the use of any peptide at any concentration was almost 100%.

cells = test: as above; format: cell-based; conditions: 10-40 μM; α-MEM(+) 24 hours
Method: as §1

CC[C@H](C)[C@H](N)C(=O)N[C@@H](Cc1c[nH]c2ccccc12)C(=O)N[C@@H](CC(C)C)C(=O)N[C@H](C(=O)N[C@@H](C)C(=O)N[C@@H](CC(C)C)C(=O)N[C@@H](CCCCN)C(=O)N[C@@H](Cc1ccccc1)C(=O)N[C@@H](CC(C)C)C(=O)NCC(=O)N[C@@H](CCCCN)C(=O)N[C@@H](C)C(=O)N[C@@H](C)C(=O)N[C@@H](C)C(=O)N[C@@H](CCCCN)C(=O)N[C@@H](C)C(=O)N[C@@H](CCCC(=O)O)C(=O)N[C@@H](C)C(=O)N[C@@H](CCCCN)C(=O)N[C@@H](CCC(N)=O)C(=O)N[C@@H](CCCC(=O)O)C(=O)N[C@@H](CC(C)C)C(=O)N[C@@H](CO)C(=O)N[C@@H](CCCCN)C(=O)N[C@@H](CC(C)C)C(N)=O)[C@@H](C)O [HAad, H-IWLTALKFLGKAAAKAXAKQXLSKL-amide] (HELM PEPTIDE1{I.W.L.T.A.L.K.F.L.G.K.A.A.A.K.A.[O=C(O)CCC[C@H](N[*:1])C(=O)[*:2]].A.K.Q.[O=C(O)CCC[C@H](N[*:1])C(=O)[*:2]].L.S.K.L.[am]}$$$$V2.0)
helicity in the presence of an acidic lipid membrane [1]: high helicity | peptide concentration required to detect the signal of intracellularly released human immunoglobulin in 35% of the cells (HeLa cells; IgG 500 μg/mL, 1 hour): 20 µM | intracellular release of IgG relative to L17E (HeLa cells; peptide 20 μM, IgG 500 μg/mL (FIG. 9)): 2.5 times | cells in which intracellular release of human immunoglobulin was observed (HeLa cells; peptide 20 μM, IgG 500 μg/mL): about 37% | IgG dose required for intracellular IgG release in 50% of the cells, relative (HeLa cells; peptide 40 μM, HAad treatment compared with L17E): 1/10 | intracellular release of IgG relative to L17E (HeLa cells; peptide 40 μM, IgG 50 μg/mL (FIG. 8)): 5 times | cells in which intracellular release of human immunoglobulin was observed (HeLa cells; peptide 40 μM, IgG 50 μg/mL): 50% | intracellular release of IgG relative to L17E (HeLa cells; peptide 40 μM, IgG 500 μg/mL (FIG. 7)): twice | cells in which intracellular release of human immunoglobulin was observed (HeLa cells; peptide 40 μM, IgG 500 μg/mL): about 70% | proportion of GFP-expressing cells ([2]; Cre-His6 10 μM, peptide 40 μM, 1 hour, then 24 hours in α-MEM(+)): 41% | increase of genetic recombination as compared with no peptide administration ([2]; EGFP expression with no release peptide was 9%): 32% | effect on mitochondrial membrane (cells emitting red JC-1 fluorescence), in words [3]: no significant difference from the untreated case | viability at 24 h [4]: ~100% | toxicity, in words (cells): no significant toxicity
